Results from patent US20260191821A1, “COMPOSITIONS AND METHODS FOR TREATING NEURODEGENERATIVE DISEASES” (The General Hospital Corporation, priority 2023, published 2026).
Where two headings read alike, the source gives them in different places.

Columns and labels:
[1] = 500 mg to 1000 mg daily; cited from earlier work
BV2 microglial cells = experiment: Microglial Aβ42 uptake/clearance in BV2 microglial cells, measured by Aβ ELISA; format: cell-based
Protocol: Urolithin A was identified as a top-tier enhancer of Aβ clearance by microglia in an unbiased (and biased) screening of natural product compounds. Cellular assay models based on BV2 microglial cells were used to assess the ability of microglia to phagocytose synthetic Aβ42 peptides, a major pathogenic Aβ isoform of Alzheimer's disease Aβ species (microglial uptake/clearance).
The ability of the agents, alone or in combination, to increase microglial Aβ uptake was also assessed (FIG. 9). […] FIGS. 11B-11D and FIGS. 12A-12F show TNFα levels in response to treatment with cat's claw (#134), urolithin A (#144), fisetin (NP-82) and quercetin (NP-162), alone or in various combinations.

TNFα = TNFα release by LPS-activated BV2 microglial cells, ELISA on conditioned cell media; format: cell-based; settings: for TNFα release / LPS-induced microglial pro-inflammatory activation: Example 1, BV2 cells, FIGS. 2, 4B, 5; for TNFα release / LPS-induced microglial pro-inflammatory activation / EC50: 1 μg/mL LPS for 5 hours; for EC50: Mus musculus, BV-2, BV2 cells, read-out: EC50 of TNFα reduction
Protocol: Effects of urolithin A and fisetin on the reduction of pro-inflammatory cytokines levels, such as TNFα, were assessed in an unbiased library screening. BV2 microglial cells were converted to a pro-inflammatory activation state by acute treatment with 1 μg/mL of Lipopolysaccharide (LPS) for 5 hours in the presence of a vehicle or urolithin A or fisetin. Effects on inflammation were assessed by measuring levels of a representative pro-inflammatory cytokine, TNFα, via an ELISA assay on the conditioned cell media. FIGS. 2A and 2B show representative results of the dose-response reduction of TNFα after treatment with LPS and urolithin A and fisetin, respectively.
BV2 microglial cells were next treated with 1 μg/mL of LPS for 5 hours in the presence of urolithin A and fisetin at different concentrations, alone or in combination (FIG. 5). Levels of TNFα secreted by the microglial cells into the conditioned cell media were measured using ELISA.
Effects of urolithin A, fisetin, nicotinamide riboside, cat's claw, and quercetin, alone or in combination, on TNFα concentration were assessed (FIGS. 6A-6E and 7A-7C). BV2 microglial cells were converted to a pro-inflammatory activation state by acute treatment with 1 μg/mL of Lipopolysaccharide (LPS) for 5 hours in the presence of a vehicle or nicotinamide riboside (#101), cat's claw (#134), urolithin A (#144), fisetin (NP-82) or quercetin (NP-162), alone or in combination. Effects on inflammation were assessed by measuring levels of TNF&, via an ELISA assay on the conditioned cell media.

| Structure (SMILES) | reported safety and/or usefulness [1] | microglial Aβ uptake/clearance (BV2 microglial cells; Example 1, BV2 microglial cells, FIG. 1 and FIG. 3) | EC50 (BV2 microglial cells; Mus musculus, BV-2, BV2 microglial cells, synthetic Aβ42 peptides, FIG. 1) [µM] | TNFα release / LPS-induced microglial pro-inflammatory activation (TNFα) | EC50 (TNFα; FIG. 2A) [µM] | EC50 (TNFα; FIG. 2B) [µM] | reduction of TNFα levels (TNFα; fisetin alone, LPS-treated BV2 microglia cells, FIG. 4B) |
| --- | --- | --- | --- | --- | --- | --- | --- |
| O=c1oc2cc(O)ccc2c2ccc(O)cc12 [urolithin A, 3,8-dihydroxy-6H-benzo[b,d]pyran-6-one] | safe and/or useful | increases microglial Aβ uptake/clearance in a dose-dependent manner | 12.4 | reduce TNFα release by LPS-activated microglia in a dose-dependent manner | 21 |  |  |
| O=c1c(O)c(-c2ccc(O)c(O)c2)oc2cc(O)ccc12 [fisetin, 3,3′,4′,7-tetrahydroxyflavone] |  |  |  | reduce TNFα release by LPS-activated microglia in a dose-dependent manner |  | 8 | roughly 75% |
